pIC50: −log10 of the molar value.
target: T1, MCH R1 (melanine-concentrating hormone receptor-1) (Homo sapiens, UniProt Q99705); assay: Inhibitory effects on MCH R1 binding (Eu-MCH time-resolved fluorescence binding assay); details: concentration inhibiting the binding of MCH (Eu-MCH, 2 nM) to MCH R1 by 50% in vitro; TRF readout; test range 1 nM to 10 μM; read-out: IC50
T1 construct: purchased Euroscreen, Gosselies, Belgium
Experimental: First, MCH R1 (melanine-concentrating hormone receptor-1; Euroscreen, Gosselies, Belgium), 1 μM Europium-labeled melanine-concentrating hormone (Eu-MCH, PerkinElmer, Turku, Finland) and 1 mM melanine-concentrating hormone (MCH, #070-47, Phoenix, Belmont Calif., USA) were kept at 4° C. for ready use. 1 μM Eu-MCH and 1 mM MCH were diluted with an experimental solution (25 mM HEPES pH 7.4, 5 mM MgCl2, 1 mM CaCl2 and 0.5% (w/w) BSA) to 8 nM (final reaction concentration: 2 nM) and 2 μM (final reaction concentration: 0.5 μM), respectively. The compounds prepared in the Examples (“Test compounds”) were dissolved in the experimental solution in concentration of 4 nM to 40 μM (final reaction concentration: 1 nM to 10 μM). MCH R1 (200 assays/vial) was homogeneously dispersed in the experimental solution.
Then, 100 μl/well of the following reaction mixture was added to the wells of a microplate (Multiwell 96 well filter plates PN5020, Pall Co., Ann Arbor, Mich., USA) equipped with a filter paper, with an 8-channel pipette (multi 8-channel, Eppendorf, Hamburg, Germany). Specifically, to the wells of a non-specific binding control group, 25 μl of Eu-MCH, 50 μl of MCH R1 and 25 μl of MCH were added. Further, 25 μl of the experimental solution supplemented with 10% (w/w) of DMSO, 25 μl of Eu-MCH and 50 μl of MCH R1 were added to the wells of a total binding control group, while 25 μl of the test compounds, 25 μl Eu-MCH and 50 μl of MCH R1 were added to the wells of an experimental group. Subsequently, the microplate was shaken gently for 15 seconds and kept at room temperature for 90 minutes to allow the reaction to take place. Then, the plate was washed with a microplate washer (EMBLA, Molecular Devices) by washing three times with 300 μl of a washing solution (25 mM HEPES pH 7.4, 5 mM MgCl2, 1 mM CaCl2) to remove the residual unreacted Eu-MCH. Moisture was removed from the bottom of the wells and 150 μl of dissociation solution (DELFIA Enhancement solution, PerkinElmer, Turku, Finland) was added to each well, followed by keeping the plate at room temperature for 2 to 4 hours. Subsequently, time-resolved fluorescence (TRF) values were measured with a multilabel counter (Victor2, PerkinElmer, Turku, Finland) (emission wave length: 615 nm, excitation wave length: 340 nm). The inhibition rate based on the time-resolved fluorescence data was calculated using the following Equation (I). Inhibition rate of time-resolved fluorescence (%)=[(Average TRF value of the total binding group−Time-resolved fluorescence value of the test compound)/(Average TRF value of the total binding group−Average TRF value of the non-specific binding group)]×100 (I)

T1 sequence (Q99705 whole entry, species assumed): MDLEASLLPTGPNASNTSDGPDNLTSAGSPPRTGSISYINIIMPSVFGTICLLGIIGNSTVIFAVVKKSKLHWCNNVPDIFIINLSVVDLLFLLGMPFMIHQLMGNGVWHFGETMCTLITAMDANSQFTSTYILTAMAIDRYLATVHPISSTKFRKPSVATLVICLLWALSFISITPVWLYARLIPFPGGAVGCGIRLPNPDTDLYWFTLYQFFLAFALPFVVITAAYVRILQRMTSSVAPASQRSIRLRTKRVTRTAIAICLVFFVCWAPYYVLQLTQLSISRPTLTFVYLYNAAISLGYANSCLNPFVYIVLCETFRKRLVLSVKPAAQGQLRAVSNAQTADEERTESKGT

Row | SMILES | pIC50
1 | CC(=O)Nc1cccc(C2CCN(CCCn3c(-c4cccn4C)nc4cc(C)c(C)cc43)CC2)c1 [Example 121, 5,6-dimethyl-2-(1-methylpyrrol-2-yl)-1-{3-[4-(3-acetamidophenyl)piperidin-1-yl]propyl}-1H-benzimidazole] | 8.30
2 | CC(=O)Nc1cccc(C2CCN(CCCn3c(-c4ccc(-c5ccccc5)cc4)nc4ccccc43)CC2)c1 [Example 46, 2-(4-biphenyl)-1-{3-[4-(3-acetylaminophenyl)piperidin-1-yl]propyl}-1H-benzimidazole] | 8.10
3 | CC(=O)Nc1cccc(C2CCN(CCCn3c(-c4cccnc4)nc4cc(Cl)ccc43)CC2)c1 [Example 116, 5-chloro-2-(pyridin-3-yl)-1-{3-[4-(3-acetamidophenyl)piperidin-1-yl]propyl}-1H-benzimidazole] | 7.32
4 | CC(=O)Nc1cccc(C2CCN(CCCn3c(-c4ccc(Cl)cc4F)nc4ccccc43)CC2)c1 [Example 53, 2-(4-chloro-2-fluorophenyl)-1-{3-[4-(3-acetylaminophenyl)piperidin-1-yl]propyl}-1H-benzimidazole] | 9.00
5 | CC(=O)Nc1cccc(C2CCN(CCCn3c(-c4ccc(F)cc4Cl)nc4ccccc43)CC2)c1 [Example 54, 2-(2-chloro-4-fluorophenyl)-1-{3-[4-(3-acetylaminophenyl)piperidin-1-yl]propyl}-1H-benzimidazole] | 8.40
6 | CC(=O)Nc1cccc(C2CCN(CCCn3c(-c4ccc(F)c(F)c4)nc4ccccc43)CC2)c1 [Example 50, 2-(3,4-difluorophenyl)-1-{3-[4-(3-acetylaminophenyl)piperidin-1-yl]propyl}-1H-benzimidazole] | 8.40
7 | COc1cccc(-c2nc3ccccc3n2CCCN2CCC(c3cccc(NC(C)=O)c3)CC2)c1 [Example 18, 2-(3-methoxyphenyl)-1-{3-[4-(3-acetylaminophenyl)piperidin-1-yl]propyl}-1H-benzimidazole] | 8.15
8 | CC(=O)Nc1cccc(C2CCN(CCCn3c(-c4ccc(Br)o4)nc4cc(Cl)ccc43)CC2)c1 [Example 118, 5-chloro-2-(5-bromofuran-2-yl)-1-{3-[4-(3-acetamidophenyl)piperidin-1-yl]propyl}-1H-benzimidazole] | 7.70
9 | CC(=O)Nc1cccc(C2CCN(CCCn3c(C)nc4ccc(C)nc43)CC2)c1 [Example 91, 2,5-dimethyl-3-{3-[4-(3-acetylaminophenyl)piperidin-1-yl]propyl}-3H-imidazo[4,5-b]pyridine] | 5.55
10 | CC(=O)Nc1cccc(C2CCN(CCCn3c(-c4ccccc4F)nc4ccccc43)CC2)c1 [Example 15, 2-(2-fluorophenyl)-1-{3-[4-(3-acetylaminophenyl)piperidin-1-yl]propyl}-1H-benzimidazole] | 8.00
11 | CC(=O)Nc1cccc(C2CCN(CCCn3c(-c4ccc5c(c4)OCO5)nc4ccccc43)CC2)c1 [Example 70, 2-(benzo[1,3]dioxol-5-yl)-1-{3-[4-(3-acetylaminophenyl)piperidin-1-yl]propyl}-1H-benzimidazole] | 7.92
12 | CC(=O)Nc1cccc(C2CCN(CCCn3c(-c4cccc([N+](=O)[O-])c4)nc4ccccc43)CC2)c1 [Example 55, 2-(3-nitrophenyl)-1-{3-[4-(3-acetylaminophenyl)piperidin-1-yl]propyl}-1H-benzimidazole] | 8.10
13 | COc1ccc(Cl)cc1-c1nc2cc(C)c(C)cc2n1CCCN1CCC(c2cccc(NC(C)=O)c2)CC1 [Example 87, 2-(5-chloro-2-methoxyphenyl)-1-{3-[4-(3-acetylaminophenyl)piperidin-1-yl]propyl}-5,6-dimethyl-1H-benzimidazole] | 7.15
14 | CCCCc1nc2c(C)c(-c3ccccc3)c(C)nc2n1CCCN1CCC(c2cccc(NC(=O)C(C)C)c2)CC1 [Example 100, 2-butyl-5,7-dimethyl-6-phenyl-3-{3-[4-(3-isobutyrylaminophenyl)piperidin-1-yl]propyl}-3H-imidazo[4,5-b]pyridine] | 6.49
15 | CC(=O)Nc1cccc(C2CCN(CCCn3c(-c4cccc(Br)c4)nc4ccccc43)CC2)c1 [Example 13, 2-(3-bromophenyl)-1-{3-[4-(3-acetylaminophenyl)piperidin-1-yl]propyl}-1H-benzimidazole] | 9.00
16 | CC(=O)Nc1cccc(C2CCN(CCCn3c(-c4ccccc4)nc4ccncc43)CC2)c1 [Example 72, 2-phenyl-3-{3-[4-(3-acetylaminophenyl)piperidin-1-yl]propyl}-3H-imidazo[4,5-c]pyridine] | 6.59
17 | COC(=O)c1cccc(-c2nc3ccccc3n2CCCN2CCC(c3cccc(NC(C)=O)c3)CC2)c1 [Example 76, 2-(3-methoxycarbonylphenyl)-1-{3-[4-(3-acetylaminophenyl)piperidin-1-yl]propyl}-1H-benzimidazole] | 7.22
18 | CC(=O)Nc1cccc(C2CCN(CCn3c(-c4ccc(Cl)cc4)nc4ccccc43)CC2)c1 [Example 2, 2-(4-chlorophenyl)-1-{2-[4-(3-acetylaminophenyl)piperidin-1-yl]ethyl}-1H-benzimidazole] | 5.22
19 | CC(=O)Nc1cccc(C2CCN(CCCn3c(-c4ccccc4)nc4ccc([N+](=O)[O-])cc43)CC2)c1 [Example 32, 2-phenyl-1-{3-[4-(3-acetylaminophenyl)piperidin-1-yl]propyl}-6-nitro-1H-benzimidazole] | 8.00
20 | CCc1nc2cc(Br)c(C)nc2n1CCCN1CCC(c2cccc(NC(C)=O)c2)CC1 [Example 93, 6-bromo-2-ethyl-5-methyl-3-{3-[4-(3-acetylaminophenyl)piperidin-1-yl]propyl}-3H-imidazo[4,5-b]pyridine] | 7.01
21 | CC(=O)Nc1cccc(C2CCN(CCCn3c(-c4cccc(C#N)c4)nc4ccccc43)CC2)c1 [Example 52, 2-(3-cyanophenyl)-1-{3-[4-(3-acetylaminophenyl)piperidin-1-yl]propyl}-1H-benzimidazole] | 7.82
22 | CC(=O)Nc1cccc(C2CCN(CCCn3c(-c4ccc(Cl)cc4)nc4cc(C)c(C)cc43)CC2)c1 [Example 22, 2-(4-chlorophenyl)-1-{3-[4-(3-acetylaminophenyl)piperidin-1-yl]propyl}-5,6-dimethyl-1H-benzimidazole] | 6.70
23 | CC(=O)Nc1cccc(C2CCN(CCCn3c(-c4ccc(F)cc4)nc4cc(Cl)ccc43)CC2)c1 [Example 84, 2-(4-fluorophenyl)-1-{3-[4-(3-acetylaminophenyl)piperidin-1-yl]propyl}-5-chloro-1H-benzimidazole] | 7.30
24 | CC(=O)Nc1cccc(C2CCN(CCCn3c(-c4cc(F)c(F)c(F)c4F)nc4ccccc43)CC2)c1 [Example 44, 2-(2,3,4,5-tetrafluorophenyl)-1-{3-[4-(3-acetylaminophenyl)piperidin-1-yl]propyl}-1H-benzimidazole] | 7.11
25 | COc1ccc(-c2nc3ccccc3n2CCCN2CCC(c3cccc(NC(C)=O)c3)CC2)cc1 [Example 19, 2-(4-methoxyphenyl)-1-{3-[4-(3-acetylaminophenyl)piperidin-1-yl]propyl}-1H-benzimidazole] | 8.05
26 | CC(=O)Nc1cccc(C2CCN(CCCn3c(-c4ccc(Cl)cc4Cl)nc4ccccc43)CC2)c1 [Example 16, 2-(2,4-dichlorophenyl)-1-{3-[4-(3-acetylaminophenyl)piperidin-1-yl]propyl}-1H-benzimidazole] | 8.52
27 | CC(=O)Nc1cccc(C2CCN(CCCn3c(-c4ccc(C#N)cc4)nc4cc(C)c(C)cc43)CC2)c1 [Example 78, 2-(4-cyanophenyl)-1-{3-[4-(3-acetylaminophenyl)piperidin-1-yl]propyl}-5,6-dimethyl-1H-benzimidazole] | 7.00
28 | CC(=O)Nc1cccc(C2CCN(CCCn3c(-c4ccccc4)nc4ccccc43)CC2)c1 [Example 3, 2-phenyl-1-{3-[4-(3-acetylaminophenyl)piperidin-1-yl]propyl}-1H-benzimidazole] | 8.70
29 | CCCCc1nc2cc(-c3ccccn3)c(C)nc2n1CCCN1CCC(c2cccc(NC(=O)C(C)C)c2)CC1 [Example 101, 2-butyl-5-methyl-6-pyridin-2-yl-3-{3-[4-(3-isobutyrylaminophenyl)piperidin-1-yl]propyl}-3H-imidazo[4,5-b]pyridine] | 7.40
